Test results reported in publication PMC11420065 (Molecular Psychiatry, 2024).

Legend:
human 5-HT2AR [1] = target: T1, human 5-HT2AR (Homo sapiens, UniProt P28223); assay: EMTA ebBRET biosensor, agonist mode, Gαi/o/z family (Rap1GAP-RlucII/rGFP-CAAX); conditions: for Emax (%) ± SEM: normalized as % response of 5-HT, NA: no activity
Protocol: (§1) For recruitment of the β-arrestins, cells were transfected with the receptor, β-arrestin1-RlucII or β-arrestin2-RlucII, GRK2 and rGFP-CAAX.
(§2) For in vitro experiments, curves fitting was conducted using GraphPad Prism 9 (version 9.0.0). Concentration response curves were obtained using a three-parameter logistic nonlinear regression model and the results are expressed as mean ± SEM of at least three independent experiments. […] Ligand-promoted BRET (ΔBRET) was determined by subtracting the BRET ratio of the vehicle condition from the BRET ratio of the ligand-treated conditions.

human 5-HT2AR [2] = target: T1, human 5-HT2AR; assay: EMTA ebBRET biosensor, agonist mode, β-arrestin recruitment; conditions: baseline vs maximal response, words
Protocol: as §1, §2

[3] = tested on: D-myo-inositol 1 monophosphate (IP1); assay: IP1 levels in frontal cortex of treated mice (IP-One HTRF); conditions: 1 h
Protocol: C57BL/6 wild-type males, sourced from JAX farms, 11 weeks of age at the time of experiment, were housed in groups of up to five littermates with food and water ad libitum in a vivarium with a 12 h light/dark cycle at 23 °C. Animals were allowed to get accustomed to the vivarium at least 1 week prior to the experiment. […] All efforts were made to minimize animal suffering and the number of animals used.
Briefly, frontal cortices were harvested and homogenized in a 10 µL per 1 mg of tissue solution consisting of 10% IP-One Gq Kit Lysis and Detection Buffer in Stimulation Buffer. The clarified homogenates (17,000 × g for 15 min) were plated in duplicate by sequential addition of 2 µL to a 18 µL mix of detection reagents in Lysis and Detection Buffer.
The mice used in the studies came from the same colony and were split randomly between the experimental groups. The investigators were blinded to group allocation during compounds administration to mice. Data are presented as mean ± SEM of 5 mice for each treated group.
Data are normalized in fold of IP1 production in vehicle-treated mice (n = 5 animals per treatment condition; one-way ANOVA followed by Dunnett’s post hoc: compared to vehicle at 1h: *p < 0.1 and **p < 0.01 compared to vehicle).

human 5-HT2AR [4] = target: T1, human 5-HT2AR
Protocol: as §1, §2

human 5-HT2AR [5] = target: T1, human 5-HT2AR; assay: EMTA ebBRET biosensor, agonist mode, Gαq family (p63-RlucII/rGFP-CAAX); conditions: normalized as % response of 5-HT, NA: no activity
Protocol: as §1, §2

T1 sequence (P28223 whole entry): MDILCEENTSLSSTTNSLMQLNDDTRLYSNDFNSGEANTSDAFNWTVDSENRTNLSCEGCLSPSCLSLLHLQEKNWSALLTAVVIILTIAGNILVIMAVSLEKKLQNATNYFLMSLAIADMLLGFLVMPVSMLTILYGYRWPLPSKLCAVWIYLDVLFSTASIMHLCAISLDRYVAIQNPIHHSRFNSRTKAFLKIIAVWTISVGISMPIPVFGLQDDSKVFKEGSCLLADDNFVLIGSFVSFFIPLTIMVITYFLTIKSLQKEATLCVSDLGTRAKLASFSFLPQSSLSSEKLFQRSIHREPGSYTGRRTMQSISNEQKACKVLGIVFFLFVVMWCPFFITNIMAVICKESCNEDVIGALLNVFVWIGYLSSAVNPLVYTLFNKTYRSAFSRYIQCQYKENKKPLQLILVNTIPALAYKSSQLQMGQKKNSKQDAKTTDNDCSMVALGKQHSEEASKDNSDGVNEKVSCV

Emax (%) ± SEM (human 5-HT2AR [1]; Gαi1) [%]	Emax (%) ± SEM (human 5-HT2AR [1]; Gαi2) [%]	Emax (%) ± SEM (human 5-HT2AR [1]; Gαi3) [%]	Emax (%) ± SEM (human 5-HT2AR [1]; GαoA) [%]	Emax (%) ± SEM (human 5-HT2AR [1]; GαoB) [%]	Emax (%) ± SEM (human 5-HT2AR [1]; Gαz) [%]	% inhibition ± SEM (human 5-HT2AR [4]) [%]	Emax (%) ± SEM (human 5-HT2AR [5]; Gα11) [%]	Emax (%) ± SEM (human 5-HT2AR [5]; Gα14) [%]	Emax (%) ± SEM (human 5-HT2AR [5]; Gα15) [%]	Emax (%) ± SEM (human 5-HT2AR [5]; Gαq) [%]	SMILES	activation at Gαi1 and Gαz (human 5-HT2AR [1])	recruitment of β-arrestin1 (human 5-HT2AR [2])	increase in IP1 levels compared to the vehicle condition ([3]; 2 mg/Kg i.p.) [%]	activation at the Gαi/o/z family (human 5-HT2AR [1]; agonist mode, baseline vs maximal response, words)	reduction in IP1 ([3]; 3 mg/Kg i.p., vs vehicle) [%]
											O=C1CCc2ccc(OCCCCN3CCN(c4cccc(Cl)c4Cl)CC3)cc2N1 [Aripiprazole, aripiprazole]	very weak yet statistically significant activation	very weak yet statistically significant recruitment	10.5 ± 1.6		
12.72 ± 3.42	11.72 ± 2.50	16.05 ± 2.57	11.59 ± 2.44	4.32 ± 2.16	9.02 ± 0.88	> 50	70.72 ± 4.97	68.10 ± 3.05	13.93 ± 0.53	67.99 ± 4.29	CN(C)C(=O)N[C@H]1CC[C@H](CCN2CCN(c3cccc(Cl)c3Cl)CC2)CC1 [Cariprazine, cariprazine]		did not		did not show statistically significant activation	
											Cc1nc2n(c(=O)c1CCN1CCC(c3noc4cc(F)ccc34)CC1)CCCC2 [Risperidone, risperidone]					9.2 ± 1.2
